From paper PMC10399197, “Insights into Enzymatic Catalysis from Binding and Hydrolysis of Diadenosine Tetraphosphate by E. coli Adenylate Kinase” (Biochemistry, 2023)

Experiments:
adenylate kinase (AdK) [1] = molecular target: T1, adenylate kinase (AdK) (Escherichia coli, UniProt P69441); assay: Kd (Figure S1; ITC in the Supporting Information); also 1H-15N HSQC NMR, DEER EPR and […] NMR hydrolysis; type: binding; set-up: wild-type AdK
adenylate kinase (AdK) [2] = molecular target: T1, adenylate kinase (AdK); assay: X-ray crystal structure at […] Å (AdK cocrystallized with AP4A; two ADP molecules modeled); type: binding

T1 sequence (P69441 whole entry): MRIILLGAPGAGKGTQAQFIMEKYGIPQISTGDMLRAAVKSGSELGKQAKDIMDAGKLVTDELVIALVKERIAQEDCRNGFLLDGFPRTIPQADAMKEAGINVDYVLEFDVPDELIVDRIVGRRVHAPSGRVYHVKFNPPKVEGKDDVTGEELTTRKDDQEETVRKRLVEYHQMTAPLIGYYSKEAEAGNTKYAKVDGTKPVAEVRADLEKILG

## Nc1ncnc2c1ncn2[C@@H]1O[C@H](COP(=O)(O)OP(=O)(O)OP(=O)(O)OP(=O)(O)OC[C@H]2O[C@@H](n3cnc4c(N)ncnc43)[C@H](O)[C@@H]2O)[C@@H](O)[C@H]1O [AP4A]
Adenylate kinase (AdK) [1]
  Kd: 14 µM

## Nc1ncnc2c1ncn2[C@@H]1O[C@H](COP(=O)(O)OP(=O)(O)O)[C@@H](O)[C@H]1O [ADP]
Adenylate kinase (AdK) [2]
  X-ray crystal structure at 1.49 Å (AdK cocrystallized with AP4A); two ADP molecul: the crystals trapped AdK in the closed conformation in complex with two ADP molecules
